Target: kappa opioid receptor (OPRK1) (Homo sapiens (Human), UniProt P41145)
Test: OPRK1 antagonist assay (b-arrestin-2-TEV / b-lactamase reporter cell line, EC80 U-50488 challenge)
Type: cell-based
Settings: read-out: IC50 nM (% inhib if other than 50%); antagonist mode vs EC80 U-50488; NA = not active at concentrations up to 10 μM

Sequence of kappa opioid receptor (OPRK1) (P41145 whole entry): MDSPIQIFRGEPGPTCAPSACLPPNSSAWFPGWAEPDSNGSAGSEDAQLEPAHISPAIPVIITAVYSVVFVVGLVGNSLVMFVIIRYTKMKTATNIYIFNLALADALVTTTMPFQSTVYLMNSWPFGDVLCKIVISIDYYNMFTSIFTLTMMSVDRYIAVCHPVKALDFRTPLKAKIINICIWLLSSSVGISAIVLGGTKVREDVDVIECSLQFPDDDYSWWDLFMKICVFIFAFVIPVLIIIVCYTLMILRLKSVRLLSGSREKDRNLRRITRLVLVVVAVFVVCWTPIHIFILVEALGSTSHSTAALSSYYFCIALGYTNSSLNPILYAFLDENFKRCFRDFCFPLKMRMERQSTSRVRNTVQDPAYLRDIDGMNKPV

| Compound | IC50 [nM] |
| --- | --- |
| Cc1cnc(N2CCC(NC3CCCCC3)CC2)c(-c2ccncn2)c1 [compound 517] | 1140 |
| CC(=O)c1cc(Br)cnc1N1CCC(NC2CCCCC2)C(CO)C1 (stereo not drawn) [compound 144] | 4800 |
| COC(=O)c1cc(C)ccc1N1CCC(NC2CCCCC2)C(OC)C1 (stereo not drawn) [compound 539] | 3700 |
| CCN(CC)C(=O)c1cc(Br)cnc1N1CC[C@@H](NC2CCCCC2)[C@H](O)C1 [compound 139] | 4800 |
| COC(=O)c1cc(Br)cnc1N1CCC(NC2CCCC2)C(C(=O)OC)C1 (stereo not drawn) [compound 117] | 3800 |
| CO[C@H]1CN(c2nc3cc(F)ccc3cc2-c2nc(C)no2)CC[C@H]1NCC(C)C [compound 538] | 970 |
| CO[C@@H]1CN(c2nc3cc(F)ccc3cc2-c2nc(C)no2)CC[C@@H]1NC1CCCCC1 [compound 514] | 55 |
| CCOC(=O)c1cc(C(=O)OC)c(C)nc1N1CCC(NC2CCCCC2)C(O)C1 (stereo not drawn) [compound 94] | 61 |
| COC(=O)c1cc(Br)cnc1N1CCC(NC2CCCCCC2)C(C(=O)OC)C1 (stereo not drawn) [compound 115] | 1700 |
| Cc1nc(-c2cc3ccc(F)c(C)c3nc2N2CCC(NC3CCOCC3)CC2)no1 [compound 511] | 227 |
| COC(=O)c1cc(C)c(C)nc1N1CCC(NC2CCCCC2)C(OC)C1 (stereo not drawn) [compound 163] | 915 |
| Cc1nc(-c2cc3ccc(F)c(C)c3nc2N2CCC(NCC(C)C)CC2)no1 [compound 505] | 126 |
| CO[C@H]1CN(c2ncc(C)cc2-c2cnc(C)cn2)CC[C@H]1NC1CCCCC1 [compound 472] | 105 |
| COC(=O)c1cc(Br)cnc1N1CCC(NC2CCCCCC2)C(CO)C1 (stereo not drawn) [compound 74] | 58 |
| COC(=O)c1cc(Br)cnc1N1CCC(NC2CCCCC2)C1 (stereo not drawn) [compound 14] | 185 |
| CCC1(CO)CN(c2ncc(C)cc2-c2nc(C)no2)CCC1NC1CCCCC1 (stereo not drawn) [compound 182] | 76 |
| Cc1ccc2nc(N3CCC(NC4CCOCC4)CC3)c(-c3ccc(C)o3)cc2c1 [compound 501] | 331 |
| COC(=O)c1cc(NC(C)=O)cnc1N1CCC(NC2CCCCC2)CC1 [compound 86] | 628 |
| Cc1ccc2nc(N3CCC(NC4CCCCC4)C(CO)C3)c(C(=O)N(C)C)cc2c1 (stereo not drawn) [compound 280] | 99 |
| COC(=O)c1cc(Br)cnc1N1CCC(NC2CCC(C)CC2)CC1 (stereo not drawn) [compound 16] | 536 |
| CCc1noc(-c2cc(C)cnc2N2CCC(NC3CCCCC3)C(CO)C2)n1 (stereo not drawn) [compound 171] | 1100 |

| Compound | IC50 [nM] |
| --- | --- |
| COC(=O)c1cccnc1N1CCC(NC2CCCCC2OC)C(O)C1 (stereo not drawn) [compound 54] | 559 |
| CCOC(=O)c1cc(C(=O)OC)c(C)nc1N1CCC(NC2CCCCC2)C(CO)C1 (stereo not drawn) [compound 93] | 621 |
| O[C@@H]1CN(c2nc3ccccc3cc2-c2ncco2)CC[C@H]1NC1CCCCC1 [compound 218] | 475 |
| Cc1nc(-c2cc3ccc(F)cc3nc2N2CCC(NC3CCOCC3)CC2)no1 [compound 482] | 75 |
| COC(=O)c1cc(I)cnc1N1CCC(NC2CCCCC2OC)C(CO)C1 (stereo not drawn) [compound 91] | 198 |
| COC(=O)c1cc(Br)cnc1N1CCC(NC(=O)C2CCCCC2)CC1 [C58] | > 20000 |
| COC(=O)c1cc(Br)cnc1N1C2CCC1CC(NC1CCCCC1)C2 (stereo not drawn) [compound 15] | 7700 |
| Cc1ccc2nc(N3CCC(NC4CCOCC4)CC3)c(-c3nc(C)no3)nc2c1 [compound 518] | 410 |
| COC(=O)c1cc(I)cnc1N1CCC(NC2CCCCC2O)CC1 (stereo not drawn) [compound 37] | 142 |
| COC(=O)c1cc(Br)cnc1N1CC2C(C1)C2NC1CCCCC1 (stereo not drawn) [C27] | 21000 |
| COC(=O)c1cc([N+](=O)[O-])cnc1N1CCC(NC2CCCCC2)C(O)C1 (stereo not drawn) [compound 98] | 1100 |
| CO[C@@H]1CN(c2nc3ccc(C)cc3cc2-c2noc(C)n2)CC[C@@H]1NC1CCCCC1 [compound 382] | 83 |
| COC(=O)c1cc(Br)cnc1N1CCC(N(C)C2CCCCC2)C(O)C1 (stereo not drawn) [compound 51] | 3000 |
| COC1CN(c2nc(C)c(C)cc2-c2nc(C)no2)CCC1NC1CCCCC1 (stereo not drawn) [compound 178] | 483 |
| COC1CN(c2nc3ccccc3nc2-c2nc(C)no2)CCC1NC1CCCCC1 (stereo not drawn) [compound 190] | 57 |
| COC(=O)c1cc(Br)cnc1N1CCC(NC2CCOCC2)C(O)C1 (stereo not drawn) [compound 61] | 54 |
| COC(=O)c1cc(I)cnc1N1CCC(NC2CCOCC2)C(CO)C1 (stereo not drawn) [compound 90] | 186 |
| COC(=O)c1cc(Br)cnc1N1CCC(NC2CCCCC2OC)CC1 (stereo not drawn) [compound 26] | 267 |
| COC(=O)c1cc(Br)cnc1N1CCC(N[C@H](C)C2CCCCC2)CC1 [compound 17] | 6800 |
| Cc1cnc(N2CCC(NC3CCOCC3)C(CO)C2)c(-c2nc(C)no2)c1 (stereo not drawn) [compound 195] | 700 |
| COC1CN(c2ncc(C)cc2-c2nc(C)no2)CCC1NC1CCCCC1 (stereo not drawn) [compound 179] | 253 |

Continued by falling IC50, values first:

| IC50 [nM] | Compound |
| --- | --- |
| 53 | CCOC(=O)c1cc(Br)cnc1N1CCC(NC2CCCCC2)C(CO)C1 (stereo not drawn) [compound 69] |
| 52 | COC(=O)c1cc(Cl)cnc1N1CCC(NC2CCCCC2)C(O)C1 (stereo not drawn) [compound 43] |
| 47 | CCc1noc(-c2cc3cc(C)ccc3nc2N2CCC(NC3CCOCC3)CC2)n1 [compound 290] |
| 38 | Cc1noc(-c2cc3cc(Cl)ccc3nc2N2CC[C@@H](NC3CCCCC3)[C@H](O)C2)n1 [compound 238] |
| 30 | CCc1ccc2nc(N3CCC(NC4CCCCC4)C(CO)C3)c(-c3nc(C)no3)cc2c1 (stereo not drawn) [compound 269] |
| 28 | COC1CN(c2nc3ccccc3cc2-c2nc(C)no2)CCC1NC1CCCCC1 (stereo not drawn) [compound 176] |
| 26 | Cc1ccc2nc(N3CCC(NC4CCC(F)(F)CC4)CC3)c(-c3noc(C)n3)cc2c1 [compound 436] |
| 25 | COC(=O)c1cc(I)cnc1N1CCC(NC2CCCC2)C(O)C1 (stereo not drawn) [compound 46] |
| 21 | COC1CN(c2nc(C)c(C)cc2-c2nc(C)no2)CCC1NC1CCCCCC1 (stereo not drawn) [compound 319] |
| 21 | COC1CN(c2nc3cc(C)ccc3cc2-c2nc(C)no2)CCC1NC1CCCCC1 (stereo not drawn) [compound 228] |
| 20 | CCc1noc(-c2cc3cc(C)ccc3nc2N2CCC(NC3CCCCC3)C(CO)C2)n1 (stereo not drawn) [compound 284] |
| 20 | COC1CN(c2nc3ccc(C)cc3cc2-c2nc(C)no2)CCC1NC1CCCCC1 (stereo not drawn) [compound 293] |
| 16 | Cc1ccc2nc(N3CCC(NCC(C)(C)O)CC3)c(-c3nc(C)no3)cc2c1 [compound 402] |
| 12 | Cc1nc(-c2cc3cc(C)c(F)cc3nc2N2CCC(NC3CCCC3)CC2)no1 [compound 512] |
| 12 | COC1CN(c2nc3ccc(C)cc3cc2-c2nc(C)no2)CCC1NCC(C)C (stereo not drawn) [compound 375] |
| 11 | COC(=O)c1cc(I)cnc1N1CCC(NC2CCCCC2)C(CO)C1 (stereo not drawn) [compound 77] |
| 8 | CCC(CC)NC1CCN(c2nc3ccccc3cc2-c2nc(C)no2)CC1 [compound 237] |
| 7 | Cc1ccc2cc(-c3nc(C)no3)c(N3CC[C@@H](NC4CCCCC4)[C@H](O)C3)nc2c1 [compound 227] |
| 2.5 | COC1CN(c2nc3ccccc3cc2-c2nc(C)no2)CCC1NC1CCCC1 (stereo not drawn) [compound 308] |
| 1.4 | CCCC(=O)Nc1cnc(N2CCC(NC3CCCCC3)CC2)c(C(=O)OC)c1 [compound 95] |
| 0.5 | COC1CN(c2nc3ccc(C)cc3cc2-c2nc(C3CC3)no2)CCC1NC1CCCCC1 (stereo not drawn) [compound 303] |

Reference: patent US20250346584A1, “NOVEL KAPPA OPIOID LIGANDS” (The Scripps Research Institute, priority 2012, published 2025)
